One test has as its system rats. Description: d-amphetamine-induced hyperactivity in rats. Format: in vivo, rat. Particulars: positive control dose, previously observed. As to the method: Effect of a Novel Test Compound and Xanomeline on d-Amphetamine-Induced Hyperactivity in Rats
The aim of the study is to examine the effect of a novel test compound on d-amphetamine induced hyperactivity in rats. Schizophrenia is a complex multifactorial disease that cannot be fully represented by a single experimental procedure. Antipsychotic-like behaviour was assessed in rats by the inhibition of hyperactivity (or hyperlocomotion) elicited by d-amphetamine. This procedure is sensitive to clinically relevant dopamine receptor antagonists and is therefore considered suitable for comparing muscarinic agonists that influence dopaminergic signalling. […] Statistical analysis typically involved three-way analysis of covariance or robust regression with treatment, day and rack as factors and activity during the 30 minutes prior to treatment as a covariate, followed by appropriate multiple comparison tests. A P value of <0.05 was considered statistically significant and is marked accordingly in all subsequent figures.

Test [1] has as its target T1, human muscarinic M3 receptor (Homo sapiens, UniProt P20309).
T1 construct: expressed in transfected cells
Briefly: Alphascreen Surefire phospho-ERK1/2 functional assay, M3. Conditions: phospho-ERK1/2; for EC50: read-out: pEC50 M3 (converted); for Emax: CHO, read-out: % Emax cf. ACh (M3), CHO cells stably expressing human M3. In kind it is cell-based. In short, it runs like this:
(§1)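 CHO cells stably expressing human M1, M2 or M3 receptor, serum-starved overnight, were stimulated with agonist for 5 min at 37 °C. Cells were then lysed and ERK1/2 phosphorylation detected by AlphaScreen SureFire.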
On the technique in general: In Alpha technology, singlet oxygen from a donor bead excites a nearby acceptor bead.

For test [2], the target named is T2, human muscarinic M2 receptor (Homo sapiens, UniProt P08172).
T2 sequence (P08172 1-466): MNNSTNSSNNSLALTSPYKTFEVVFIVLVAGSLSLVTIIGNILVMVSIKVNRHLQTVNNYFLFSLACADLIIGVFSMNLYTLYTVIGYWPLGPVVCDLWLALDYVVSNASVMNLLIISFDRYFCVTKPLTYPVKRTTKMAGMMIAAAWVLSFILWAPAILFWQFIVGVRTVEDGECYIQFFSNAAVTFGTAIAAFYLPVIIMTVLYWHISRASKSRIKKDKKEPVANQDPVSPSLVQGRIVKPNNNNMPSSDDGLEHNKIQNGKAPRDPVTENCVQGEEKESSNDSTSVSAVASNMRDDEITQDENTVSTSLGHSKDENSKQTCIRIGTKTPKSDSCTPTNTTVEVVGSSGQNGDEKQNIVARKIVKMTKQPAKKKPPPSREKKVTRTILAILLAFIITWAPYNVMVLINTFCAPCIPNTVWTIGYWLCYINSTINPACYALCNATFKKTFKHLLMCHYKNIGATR
Description: Alphascreen Surefire phospho-ERK1/2 functional assay, M2. In kind it is cell-based. Particulars: for EC50: CHO cells stably expressing human M2, read-out: pEC50 M2 (converted); for Emax: CHO, read-out: % Emax cf. ACh (M2), CHO cells stably expressing human M2, relative to ACh. In short, it runs like this:
as §1

Test [3] addresses T3, human muscarinic M1 receptor (Homo sapiens, UniProt P11229).
T3 sequence (P11229 1-460): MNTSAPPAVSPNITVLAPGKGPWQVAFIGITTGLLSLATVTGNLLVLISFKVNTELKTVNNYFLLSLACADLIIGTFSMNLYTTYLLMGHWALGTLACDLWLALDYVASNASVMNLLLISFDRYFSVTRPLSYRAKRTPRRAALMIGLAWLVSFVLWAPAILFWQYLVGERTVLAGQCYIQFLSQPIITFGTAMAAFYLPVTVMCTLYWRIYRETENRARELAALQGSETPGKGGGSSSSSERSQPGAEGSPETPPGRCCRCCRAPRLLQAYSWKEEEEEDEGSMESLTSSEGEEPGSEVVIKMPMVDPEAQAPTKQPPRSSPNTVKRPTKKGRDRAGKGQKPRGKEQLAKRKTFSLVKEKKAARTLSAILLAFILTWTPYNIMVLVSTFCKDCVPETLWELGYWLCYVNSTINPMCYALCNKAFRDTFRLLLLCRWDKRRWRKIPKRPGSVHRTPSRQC
Description: Alphascreen Surefire phospho-ERK1/2 functional assay, M1. In kind it is cell-based. Conditions: phospho-ERK1/2; for EC50: read-out: pEC50 M1 (converted); for Emax: CHO, read-out: % Emax cf. ACh (M1), CHO cells stably expressing human M1; for Emax / % Emax cf. ACh (M1): relative to ACh. In short, it runs like this:
as §1

Test [4] concerns the target T4, human muscarinic M4 receptor (Homo sapiens, UniProt P08173).
T4 construct: expressed in transfected cells
T4 sequence (P08173 1-479): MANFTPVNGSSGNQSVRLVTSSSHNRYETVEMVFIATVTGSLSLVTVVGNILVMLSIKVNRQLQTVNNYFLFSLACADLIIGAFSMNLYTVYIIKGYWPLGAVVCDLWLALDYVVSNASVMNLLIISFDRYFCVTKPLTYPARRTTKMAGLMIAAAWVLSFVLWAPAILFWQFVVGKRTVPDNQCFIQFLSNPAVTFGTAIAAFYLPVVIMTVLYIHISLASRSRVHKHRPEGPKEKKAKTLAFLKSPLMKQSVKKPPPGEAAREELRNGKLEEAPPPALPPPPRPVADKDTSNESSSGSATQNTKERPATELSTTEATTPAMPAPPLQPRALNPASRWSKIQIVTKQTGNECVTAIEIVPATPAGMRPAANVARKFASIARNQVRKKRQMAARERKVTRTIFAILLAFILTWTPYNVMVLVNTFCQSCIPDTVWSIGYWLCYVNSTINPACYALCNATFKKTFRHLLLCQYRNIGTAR
Description: Alphascreen Surefire phospho-ERK1/2 functional assay, M4. Format: cell-based. Conditions: phospho-ERK1/2; for EC50: read-out: pEC50 M4 (converted); for Emax: CHO, read-out: % Emax cf. ACh (M4), CHO cells stably expressing human M4.

Setting [5] is: CHO cells stably expressing human M3.
Where [6] appears, read: CHO cells stably expressing human M1.
The mark [7] stands for this setting: CHO cells stably expressing human M4.

The source of these data is US10167272B2, “Muscarinic agonists” (Heptares Therapeutics Limited, priority 2015, dated 2019).

SMILES strings stand for the structures.

T1 sequence (P20309 whole entry): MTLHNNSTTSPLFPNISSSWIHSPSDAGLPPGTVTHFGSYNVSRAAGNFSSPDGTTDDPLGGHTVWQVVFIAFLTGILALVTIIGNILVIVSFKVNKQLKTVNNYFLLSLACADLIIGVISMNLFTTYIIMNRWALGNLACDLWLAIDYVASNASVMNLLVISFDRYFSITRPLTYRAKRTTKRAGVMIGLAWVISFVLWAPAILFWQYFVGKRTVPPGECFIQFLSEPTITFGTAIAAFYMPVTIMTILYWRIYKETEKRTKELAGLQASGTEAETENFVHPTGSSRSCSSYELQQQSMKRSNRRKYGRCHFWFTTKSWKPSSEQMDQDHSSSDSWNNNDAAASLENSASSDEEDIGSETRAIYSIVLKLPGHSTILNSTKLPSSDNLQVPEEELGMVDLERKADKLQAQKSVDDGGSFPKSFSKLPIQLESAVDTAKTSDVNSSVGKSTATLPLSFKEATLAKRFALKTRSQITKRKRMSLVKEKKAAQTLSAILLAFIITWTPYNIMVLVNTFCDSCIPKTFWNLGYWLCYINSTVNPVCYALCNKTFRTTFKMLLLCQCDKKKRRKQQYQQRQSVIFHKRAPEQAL

As for `CCCCCCOc1nsnc1C1=CCCN(C)C1` [xanomeline], the d-amphetamine induced hyperactivity entry in the test on rats is “significantly reduce”.
As for `CCOC(=O)N1CCC2(CC(N3CCC(N(Cc4cnco4)CC(F)(F)F)CC3)C2)C1` (single isomer, unassigned) [2-62 Isomer 2], the EC50 was above 20 µM in test [1] (setting [5]), above 20 µM in test [2], 1000 nM in test [3] (setting [6]) and 20 nM in test [4] (setting [7]). Also, the Emax (in general, the maximal effect, on the per cent scale that the assay sets) was found to be 11% in test [1] (relative to ACh), 12% in test [2], 85% in test [3] and 106% in test [4] (relative to ACh).
Take `CCOC(=O)N1CCC2(CC(N3CCC(N(CC4(C)CCC4)C(C)=O)CC3)C2)C1` (single isomer, unassigned) [Example 2-21 Isomer 2]: the EC50 was above 20 µM in test [1] (setting [5]), above 20 µM in test [2], 63.1 nM in test [3] (setting [6]) and 158 nM in test [4] (setting [7]). Also, the Emax was found to be 22% in test [1] (relative to ACh) and 18% in test [2]. In addition, in test [3] (CHO cells stably expressing human M1, listed as 2-21 isomer 2), the “% Emax cf. ACh (M1)” value was found to be 89%.
Turning to `CCOC(=O)N1CCC2(CC(N3CCC(N(Cc4ccon4)C4CC4)CC3)C2)C1` (single isomer, unassigned) [2-10 Isomer 2], the EC50 in test [1] (setting [5]) is above 20 µM; in test [2], above 20 µM; in test [3] (setting [6]), 794 nM; in test [4] (setting [7]), 31.6 nM. Moreover, the Emax was 7% in test [1] (relative to ACh), 11% in test [2], 42% in test [3] and 122% in test [4] (relative to ACh).
Take `CCOC(=O)N1CCC2(CC(N3CCC(N(C=O)CC)CC3)C2)C1` (single isomer, unassigned) [2-16 Isomer 2]: the EC50 in test [1] (setting [5]) was above 20 µM; in test [2], above 20 µM; in test [3] (setting [6]) it was 398 nM; in test [4] (setting [7]), 39.8 nM. Further, the Emax in test [1] (relative to ACh) came out at 2%; in test [2], 5%; in test [3], 89%; in test [4] (relative to ACh), 91%.
Consider `CCOC(=O)N1CCC2(CC(N3CCC(N(C(=O)OC)C4COC4)CC3)C2)C1` (single isomer, unassigned) [2-47 Isomer 2], for which the EC50 is 1.26 µM in test [1] (setting [5]), 0.501 µM in test [2], 398 nM in test [3] (setting [6]) and 63.1 nM in test [4] (setting [7]). The Emax came to 63% in test [1] (relative to ACh), 29% in test [2], 113% in test [3] and 90% in test [4] (relative to ACh).
`CCOC(=O)N1CCC2(CC(N3CCC(N(CC)C(C)=O)CC3)C2)C1` (single isomer, unassigned) [2-2 Isomer 2]: the “pEC50 M3” value in test [1] (setting [5]) was below 4.7. Further, in test [1] (CHO cells stably expressing human M3, relative to ACh), the “% Emax cf. ACh (M3)” value was 9%. Further, the “pEC50 M2” value in test [2] (CHO cells stably expressing human M2) is below 4.7. Also, in test [2] (CHO cells stably expressing human M2, relative to ACh), the “% Emax cf. ACh (M2)” value was found to be 18%. In addition, in test [3] (setting [6]), the “pEC50 M1” value was 6.2 and the “% Emax cf. ACh (M1)” value came to 91%. For the same molecule, the “pEC50 M4” value in test [4] (setting [7]) is given as 7.4. Also, the “% Emax cf. ACh (M4)” value in test [4] (CHO cells stably expressing human M4, relative to ACh) was 99%.
Take `CCOC(=O)N1CCC2(CC(N3CCC(N(CCOC)CC(F)(F)F)CC3)C2)C1` (single isomer, unassigned) [2-52 Isomer 2]: the EC50 in test [1] (setting [5]) was above 20 µM; in test [2] it was above 20 µM; in test [3] (setting [6]) it was 398 nM; in test [4] (setting [7]) it was 25.1 nM. Further, the Emax came to 7% in test [1] (relative to ACh), 7% in test [2], 93% in test [3] and 106% in test [4] (relative to ACh).
Consider `CCOC(=O)N1CCC2(CC(N3CCC(N(OC)C(C)=O)CC3)C2)C1` (single isomer, unassigned) [2-32 Isomer 2], for which the EC50 in test [1] (setting [5]) is above 20 µM; in test [2] it was above 20 µM; in test [3] (setting [6]), 2510 nM; in test [4] (setting [7]), 39.8 nM. For the same molecule, the Emax in test [1] (relative to ACh) stood at 5%; in test [2] it was 9%; in test [3], 82%; in test [4] (relative to ACh), 115%.
